# According to ChEMBL document CHEMBL1130958, “Templates for design of inhibitors for serine proteases: application of the program DOCK to the discovery of novel inhibitors for thrombin” (Bioorg Med Chem Lett, 1998):
# Target: Prothrombin (Homo sapiens, UniProt P00734)
# Experiment: Dissociation constant was evaluated by competitive inhibition of alpha-thrombin using the method of Dixon enzyme assay.
row,Structure (SMILES),Ki
1,c1ccc(CN2CCN(Cc3ccccc3)CCN(Cc3ccccc3)CC2)cc1,410 µM
2,O=C(/N=N/c1ccccc1)NNc1ccccc1,1.7 µM
